The text below walks through data of PubChem BioAssay (NCI).

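Results reflect a 48-hour exposure of cells in 96-well plates to compound at five concentrations. GI50 = concentration required for 50% inhibition of growth. At the TGI there is no net growth.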 Bounds are passed on as bounds.

Assay in all cases: growth of human tumour cells (NCI), 48 h
For test [1], the system named is SK-OV-3 ovarian.
The test system of test [2] is KM12 colon.
Test [3] has as its system 786-0 renal.
The subject of test [4] is NCI/ADR-RES ovarian.
The subject of test [5] is A498 renal.
Test [6] concerns MDA-MB-231 breast.
Test [7] deals with SW-620 colon.
Test [8] has as its system RPMI-8226 leukemia.
Test [9] relates to OVCAR-5 ovarian.
Test [10] has as its system UACC-257 melanoma.

For `O=C(O)C(Oc1nc(=S)[nH]c(=S)[nH]1)(c1ccc(Cl)cc1)c1ccc(Cl)cc1`, the TGI in [1], in [2], in test [3], in test [4], in [5] and in test [6] was over 100 µM each time. The TGI in test [7], in test [8], in [9] and in test [10] was over 100 µM in each case.

Take `O=C(c1ccccc1)c1c(C(F)(F)F)n([O-])c2ccc(C(F)(F)F)cc2[n+]1=O`: the GI50 in [1] is 0.988 µM; in test [2], 0.385 µM; in test [3] it was 0.167 µM; in [4] it was 0.239 µM; in test [5], 1.7 µM; in test [6], 0.185 µM. Also, the GI50 in [7] is 0.135 µM; in test [8] it was 0.286 µM; in test [9], 0.264 µM; in test [10], 0.295 µM. The TGI in test [1] stood at 2.38 µM; in test [2], 0.903 µM; in test [3], 0.307 µM; in test [4], 0.688 µM; in [5], 3.11 µM; in test [6], 0.354 µM. The TGI in test [7] is 0.279 µM; in [8], 0.883 µM; in test [9] it was 0.753 µM; in [10], 0.968 µM.

Regarding `C[C@@H]1COCCN1c1cc(C2(O)C[C@H]3CC[C@@H](C2)O3)c2cnn(-c3ccn[nH]3)c2n1` (some centres not stated), the GI50 in [1] was 0.0992 µM; in [2], 0.167 µM; in test [3], 0.0479 µM; in test [4], 0.154 µM; in test [5], 0.0221 µM; in test [6] it was 0.138 µM. The GI50 in [7] was 0.187 µM; in [8] it was 0.162 µM; in test [9], 0.0977 µM; in test [10], 0.168 µM. Also, the TGI was 4.03 µM in test [1]; 9.73 µM in test [2]; over 100 µM in [3]; 1.1 µM in [4]; 0.13 µM in [5]; 5.68 µM in test [6]. Further, the TGI in test [7] was over 37.7 µM; in test [8] it was 3.72 µM; in [10], 1.42 µM.

For `CC(=O)c1cc(O)c2ccccc2c1O`, the GI50 was over 100 µM in test [1]; 18.8 µM in test [2]; 20 µM in test [3]; 24.5 µM in [4]; 89.5 µM in test [5]; 15.2 µM in test [6]. Besides, the GI50 is 18.4 µM in [7], 22.7 µM in [8], 23.7 µM in test [9] and 17.7 µM in test [10]. Moreover, the TGI in test [1] was over 100 µM; in [2], 35.1 µM; in test [3] it was 35.2 µM; in test [4], 67.5 µM; in test [5] it was over 100 µM; in test [6], 36.2 µM. Moreover, the TGI was 49.2 µM in test [7], 60.5 µM in test [8], 43 µM in test [9] and 34.1 µM in [10].

On to `Cc1cc(Nc2cc(N)ncn2)c(=O)n2c1C(=O)NC21CCCCC1`, for which the GI50 in test [1] was 62 µM; in [2], over 100 µM; in test [3] it was 22.9 µM; in test [4], over 100 µM; in test [5], 50.7 µM; in test [6] it was 82 µM. Further, the GI50 in test [7], in test [8], in [9] and in test [10] was over 100 µM throughout. The TGI in [1], in test [2], in [3], in test [4], in test [5] and in test [6] was over 100 µM throughout. Also, the TGI in test [7], in [8], in test [9] and in test [10] was over 100 µM in each case.

Take `CC(=C/c1ccccc1)/C=C1/NC(=S)N(/C=C2\C(=O)Oc3ccccc3C2=O)C1=O`: the GI50 in test [1] was over 100 µM; in [3], 57.6 µM; in [7] it was over 100 µM. Also, the TGI in test [1], in test [2], in [3], in [4], in test [5] and in test [6] was over 100 µM each time. The TGI in [7], in test [8], in test [9] and in test [10] was over 100 µM each time.

Regarding `Cc1cc(I)cc(CN(C)CCCN2CCN(C)CC2)c1O`, the GI50 was 65.7 µM in test [1]; 35.6 µM in test [2]; 18.6 µM in [3]; 77.8 µM in [4]; 23.6 µM in [5]; 24.1 µM in test [6]. For the same compound, the GI50 was 24.2 µM in [7], 16.1 µM in test [8], 78.7 µM in [9] and 35 µM in test [10]. For the same compound, the TGI in test [1] is over 100 µM; in [2] it was over 100 µM; in test [3], over 54.2 µM; in [4], over 100 µM; in [5], 54.2 µM; in test [6], over 68.3 µM. For the same compound, the TGI is over 67.7 µM in [7], 45.2 µM in [8], over 100 µM in test [9] and over 57.5 µM in [10].

`CCN(Cc1c(Cl)cccc1Cl)c1ccc(CO)c(Cl)c1`: the GI50 in test [1] is 9.84 µM; in test [2], 13.7 µM; in test [3], 13.8 µM; in [4] it was 11.8 µM; in [5] it was under 0.02 µM; in test [6] it was 13 µM. Further, the GI50 is 0.549 µM in [7], 1.12 µM in [8], under 0.0284 µM in test [9] and under 0.0392 µM in test [10]. The TGI amounted to 22.3 µM in [1]; 28.4 µM in test [2]; 28.1 µM in test [3]; 27.3 µM in test [4]; 0.0465 µM in [5]; 26.2 µM in test [6]. Further, the TGI in test [7] was 17 µM; in test [8], 17.6 µM; in test [9] it was 0.24 µM; in test [10], 0.211 µM.
